One assay has as its target Human Thrombocytes. The experiment in a line: Fibrinogen binding to human thrombocytes (fibrinogen binding test). How it is done:
1. Fibrinogen Binding to Human Thrombocytes The blood obtained by puncturing an antecubital vein is anticoagulated with trisodium citrate (final concentration: 13 mM) and centrifuged for 10 minutes at 170× g. The supernatant platelet-rich plasma is poured onto a Sepharose 2B column (Pharmacia) and eluted with a solution of 90 mM common salt, 14 mM trisodium citrate, 5 mM glucose and 50 mM tris(hydroxymethyl)aminomethane, adjusted to pH 7.4. The gel-filtered platelets (GFP) appearing before the plasma proteins are used for the binding experiments. 50 μl of a 60 mM calcium chloride solution, 50 μl of a 0.6 mM adenosine diphosphate solution, 100 μl of substance solution or solvent and 50 μl of fibrinogen solution (containing 3 μg of ^125 fibrinogen) are added to 750 μl of GFP and incubated for 20 minutes at ambient temperature. The non-specific binding is determined in the presence of 3 mg/ml of cold fibrinogen. 900 μl of the incubated material are carefully pipetted onto 250 μl of silicon oil (AP 38: AR 20, 1:2 v/v, Wacker Chemie) in Eppendorf tubes and centrifuged for 2 minutes at 10,000× g. The aqueous supernatant and some of the oil are drawn off, the tips of the tubes are cut off together with the platelet pellet and the quantity of bound fibrinogen is determined in a gamma counter. The concentration of substance which brings about a 50% inhibition in fibrinogen binding is determined from a series of concentrations and is given as the IC50 value. | *^125 I fibrogen was replaced by […] |e.

In assay [1] the test system is platelet aggregation (platelet-rich plasma). Nature of the assay: Antithrombotic activity: inhibition of collagen-induced platelet aggregation in platelet-rich plasma (Born and Cross). It is filed as cell-based, human (healthy volunteers). The following applies: 50% change in optical density, human platelet-rich plasma, 10 min preincubation. How it is done: 2. Antithrombotic Activity Method The thrombocyte aggregation is measured using the Born and Cross method (J. Physiol. 170:397 (1964)) in platelet-rich plasma taken from healthy volunteers. To inhibit coagulation the blood is mixed with 3.14% sodium citrate in a ratio by volume of 1:10. Collagen-induced aggregation The pattern of the decrease in optical density of the platelet suspension is photometrically measured and recorded after the addition of aggregation-triggering substance. The rate of aggregation is concluded from the angle of inclination of the density curve. The point on the curve where there is maximum light transmittance is used to calculate the optical density. The amount of collagen used is as small as possible but sufficient to produce an irreversible reaction curve. Standard commercial collagen produced by Hormonchemie of Munich is used. Before the addition of the collagen the plasma is incubated for 10 minutes with the substance at […]. From the measurements obtained an EC50 is determined graphically, indicating a 50% change in the optical density in terms of the inhibition of aggregation.

[2] abbreviates: 125I fibrinogen, 50% inhibition of fibrinogen binding, gel-filtered human platelets, ADP, 20 min ambient temperature, read-out: Fibrinogen binding test IC50.
Where [3] appears, read: *: 125I fibrinogen replaced by 3H-(3S,5S)-5-[(amidino-biphenylyl)-oxymethyl]-carboxymethyl-pyrrolidinone ligand, read-out: Fibrinogen binding test IC50 (values marked *).

Structures can show the parent of a compound that is named as a salt. Where two headings read alike, the source gives them in different places.

Take `N=C(N)c1ccc(OCc2nc3cc(OCC(=O)O)ccc3[nH]2)cc1` [1(135), 2-[(4-amidino-phenyl)-oxymethyl]-5(6)-carboxymethoxy-benzimidazole]: the IC50 (in general, the concentration that inhibits the measured activity by half) on Human Thrombocytes (setting [2]) came out at 800 nM. Besides, in assay [1], the half-maximal effective concentration (EC50) (usually the concentration giving half of the maximal effect) came to 7600 nM.

Regarding `N=C(N)c1ccc(-c2nc3cc(C(=O)NCCC(=O)O)ccc3n2CCCN2CCSCC2)cc1` [1(73), 2-(4-amidino-phenyl)-5-[(2-carboxy-ethyl)-aminocarbonyl]-1-(3-thiomorpholino-propyl)-benzimidazole], at Human Thrombocytes (setting [3]), the IC50 was 49 nM. In addition, in assay [1], it took 160 nM to reach a half-maximal effect (EC50).

Turning to `COC(=O)CCNC(=O)c1cc2nc(-c3ccc(C(=N)N)cc3)n(C)c2cc1N(C)C(=O)OCC(C)C` [3(130), 2-(4-amidino-phenyl)-6-(N-isobutyloxycarbonyl-N-methyl-amino)-5-[(2-methoxycarbonyl-ethyl)-aminocarbonyl]-1-methyl-benzimidazole], on Human Thrombocytes (setting [2]), the IC50 turned out to be 14000 nM. Further, a half-maximal effect in assay [1] (EC50) was put at 160 nM.

Take `COC(=O)CCNC(=O)c1ccc2c(c1)nc(-c1ccc(C(=N)N)cc1)n2CCCC(=O)O` [3(121), 2-(4-amidino-phenyl)-1-(3-carboxy-propyl)-5-[(2-methoxycarbonyl-ethyl)-aminocarbonyl]-benzimidazole]: the IC50 at Human Thrombocytes (setting [3]) was found to be 15000 nM. The same molecule came in with an EC50 in assay [1] of 13000 nM.

Take `COc1ccc(CCn2c(-c3ccc(CN)cc3)nc3cc(C(=O)NCCC(=O)O)ccc32)cc1OC` [17(5), 2-(4-aminomethyl-phenyl)-5-[(2-carboxy-ethyl)-aminocarbonyl]-1-[2-(3,4-dimethoxy-phenyl)-ethyl]-benzimidazole-dihydrobromide]: the concentration for half-maximal inhibition (IC50) at Human Thrombocytes (setting [3]) came out at 370 nM. This molecule came in with an EC50 in assay [1] of 2130 nM.

As to `Cn1c(-c2ccc(C(=N)N)cc2)[n+]([O-])c2cc(C(=O)NCCC(=O)O)ccc21` [1(79), 2-(4-amidino-phenyl)-5-[(2-carboxy-ethyl)-aminocarbonyl]-1-methyl-benzimidazole-3-oxide], the IC50 at Human Thrombocytes (setting [2]) was 41 nM. Besides, the EC50 in assay [1] stood at 80 nM.

On to `COc1ccc(CCn2c(-c3ccc(C(=N)N)cc3)nc3cc(C(=O)NCCC(=O)OC(C)C)ccc32)cc1OC` [Example 13, 2-(4-Amidino-phenyl)-1-[2-(3,4-dimethoxy-phenyl)-ethyl]-5-[(2-isopropyloxycarbonyl-ethyl)-aminocarbonyl]-benzimidazole-dihydrochloride], for which the half-maximal inhibitory concentration (IC50) on Human Thrombocytes (setting [3]) came to 1700 nM. The same molecule yielded an EC50 in assay [1] of 5700 nM.

The molecule `COC(=O)COc1ccc2[nH]c(COc3ccc(C(=N)N)cc3)nc2c1` [Example 3, 2-[(4-Amidino-phenyl)-oxymethyl]-5(6)-methoxycarbonyl-methoxy-benzimidazole-hydrochloride] had a 50% effective concentration (EC50) in assay [1] of 1200 nM.

For the molecule `COC(=O)CCCCn1c(=O)c2nc(-c3ccc(C(=N)N)cc3)n(C)c2n(C)c1=O` [3(141), 8-(4-amidino-phenyl)-3,9-dimethyl-1-(4-methoxycarbonyl-butyl)-xanthine hyd rochloride-hydroacetate], the 50% inhibitory concentration (IC50) at Human Thrombocytes (setting [2]) was found to be 140 nM. In assay [1], this molecule gave a concentration for a half-maximal effect (EC50) of 80 nM.

`CN(CC(=O)O)c1cc2c(cc1C(=O)NCCC(=O)O)nc(-c1ccc(C(=N)N)cc1)n2C` [1(140), 2-(4-amidino-phenyl)-5-[(2-carboxy-ethyl)-aminocarbonyl]-6-(N-carboxymethyl-methylamino)-1-methyl-benzimidazole]: on Human Thrombocytes (setting [3]), the IC50 is 220 nM. In assay [1], this molecule had a concentration for a half-maximal effect (EC50) of 750 nM.

Take `N=C(N)c1ccc(-c2nc3cc(C(=O)NCCC(=O)O)ccc3n2CCCC(=O)O)cc1` [1(138), 2-(4-amidino-phenyl)-5-[(2-carboxy-ethyl)-aminocarbonyl]-1-(3-carboxy-propyl)-benzimidazole]: the IC50 at Human Thrombocytes (setting [3]) amounted to 1500 nM. In addition, the response in assay [1] was half-maximal at 3600 nM (EC50).

Consider `NCc1ccc(-c2nc3cc(C(=O)NCCC(=O)O)ccc3n2CCCN2CCSCC2)cc1` [1(137), 2-(4-aminomethyl-phenyl)-5-[(2-carboxy-ethyl)-aminocarbonyl]-1-(3-thiomorpholino-propyl)-benzimidazole], for which, on Human Thrombocytes (setting [3]), the 50% inhibitory concentration (IC50) came out at 1800 nM. In assay [1], the EC50 was determined as 7000 nM.

As to `COC(=O)CCNC(=O)c1cnc2c(c1)nc(-c1ccc(C(=N)N)cc1)n2C` [3(19), 2-(4-amidino-phenyl)-6-[(2-methoxycarbonyl-ethyl)-aminocarbonyl]-3-methyl-imidazo[4,5-b]pyridine], the IC50 at Human Thrombocytes (setting [3]) was 280 nM. Also, the 50% effective concentration (EC50) in assay [1] was found to be 330 nM.

`COC(=O)CCNC(=O)c1ccc2c(c1)nc(-c1ccc(C(=N)N)cc1)n2CCCN1CCSCC1` [3(59), 2-(4-amidino-phenyl)-5-[(2-methoxycarbonyl-ethyl)-aminocarbonyl]-1-(3-thiomorpholino-propyl)-benzimidazole]: the IC50 at Human Thrombocytes (setting [3]) came out at 2000 nM. Besides, in assay [1], the EC50 is 3800 nM.

As to `COC(=O)CCNC(=O)c1ccc2c(c1)nc(-c1ccc(C(=N)N)cc1)n2CCCN1CC[S+]([O-])CC1` [Example 5, 2-(4-Amidino-phenyl)-5-[(2-methoxycarbonyl-ethyl)-aminocarbonyl]-1-[3-(S-oxido-thiomorpholino)-propyl]-benzimidazole-hydrochloride], the 50% inhibitory concentration (IC50) on Human Thrombocytes (setting [3]) was 15000 nM. This molecule also gave an EC50 in assay [1] of 43000 nM.

With `COc1ccc(CCn2c(-c3ccc(C(=N)N)cc3)nc3cc(C(=O)NCCC(=O)O)ccc32)cc1OC` [17(2), 2-(4-amidino-phenyl)-5-[(2-carboxy-ethyl)-aminocarbonyl]-1-[2-(3,4-dimethoxy-phenyl)-ethyl]-benzimidazole-dihydrobromide], the half-inhibitory concentration (IC50) at Human Thrombocytes (setting [3]) was 22 nM. In assay [1], this molecule came in with an EC50 of 80 nM.

As to `Cn1c(-c2ccc(CN)cc2)nc2cc(C(=O)NCCC(=O)O)ccc21` [17(1), 2-(4-aminomethyl-phenyl)-5-[(2-carboxy-ethyl)-aminocarbonyl]-1-methyl-benzimidazole-dihydrobromide], the half-maximal inhibitory concentration (IC50) at Human Thrombocytes (setting [2]) turned out to be 700 nM. The same molecule showed a concentration for a half-maximal effect (EC50) in assay [1] of 1530 nM.

With `CCCCCCCCCCCCCCn1c(-c2ccc(C(=N)N)cc2)nc2cc(C(=O)NCCC(=O)OC)ccc21` [3(119), 2-(4-amidino-phenyl)-5-[(2-methoxycarbonyl-ethyl)-aminocarbonyl]-1-n-tetradecyl-benzimidazole], the IC50 at Human Thrombocytes (setting [3]) is 4600 nM. In addition, the EC50 in assay [1] was found to be 39000 nM.

With `N=C(N)c1ccc(-c2nc3cc(C(=O)NCCC(=O)OCC4CCCCC4)ccc3n2CCCCc2ccccc2)cc1` [13(6), 2-(4-amidino-phenyl)-5-[(2-cyclohexylmethyloxy-carbonyl-ethyl)-aminocarbonyl]-1-(4-phenyl-butyl)-benzimidazole dihydrochloride], the IC50 on Human Thrombocytes (setting [3]) amounted to 130 nM. This molecule had an EC50 in assay [1] of 980 nM.

Take `N=C(N)c1ccc(-c2nc3cc(C(=O)NCCC(=O)O)ccc3n2CCCN2CC[S+]([O-])CC2)cc1` [1(74), 2-(4-amidino-phenyl)-5-[(2-carboxy-ethyl)-aminocarbonyl]-1-[3-(S-oxido-thiomorpholino)-propyl]-benzimidazole]: the IC50 on Human Thrombocytes (setting [3]) amounted to 120 nM. The same molecule showed an EC50 in assay [1] of 310 nM.

`COC(=O)CCNC(=O)c1ccc2c(c1)nc(-c1ccc(C(=N)N)cc1)n2CCCCc1ccccc1` [3(122), 2-(4-amidino-phenyl)-5-[(2-methoxycarbonyl-ethyl)-aminocarbonyl]-1-(4-phenyl-butyl)-benzimidazole]: on Human Thrombocytes (setting [3]), the half-inhibitory concentration (IC50) was 4000 nM. In addition, a half-maximal effect in assay [1] (EC50) was put at 8600 nM.

Regarding `COC(=O)CCNC(=O)c1ccc2[nH]c(-c3ccc(C(=N)N)cc3)nc2c1` [15(1), 2-(4-amidino-phenyl)-5(6)-[(2-methoxycarbonyl-ethyl)-aminocarbonyl]-benzimidazole-hydrochloride], the IC50 on Human Thrombocytes (setting [3]) was 2500 nM. In assay [1], this molecule registered a 50% effective concentration (EC50) of 4100 nM.

As to `Cn1c(-c2ccc(C(=N)N)cc2)nc2c(=O)n(CCCCC(=O)O)c(=O)n(C)c21` [1(160), 8-(4-amidino-phenyl)-1-(4-carboxy-butyl)-3,9-dimethyl-xanthine], the IC50 on Human Thrombocytes (setting [3]) was 7.5 nM. The same molecule returned an EC50 in assay [1] of 70 nM.

Take `N=C(N)c1ccc(-c2nc3cc(C(=O)NCCC(=O)O)ccc3n2CCCN)cc1` [1(76), 2-(4-amidino-phenyl)-1-(3-amino-propyl)-5-[(2-carboxy-ethyl)-aminocarbonyl]-benzimidazole-diacetate]: the half-maximal effective concentration (EC50) in assay [1] amounted to 1150 nM. This counts as single-digit micromolar.

For the molecule `N=C(N)c1ccc(-c2nc3cc(C(=O)NCCC(=O)O)ccc3n2Cc2ccccc2)cc1` [1(62), 2-(4-amidino-phenyl)-1-benzyl-5-[(2-carboxy-ethyl)-aminocarbonyl]-benzimidazole-hydrochloride], the half-maximal inhibitory concentration (IC50) at Human Thrombocytes (setting [3]) is 38 nM.
